The record followed here is patent publication US20240335420A1, “N-ACYLHYDRAZONE COMPOUNDS CAPABLE OF INHIBITING NAV 1.7 AND/OR NAV 1.8, PROCESSES FOR THE PREPARATION THEREOF, COMPOSITIONS, USES, METHODS FOR TREATMENT USING SAME AND KITS” (EUROFARMA LABORATÓRIOS S.A., priority 2021, published 2024).

For test [1], the target named is human sodium channels Nav 1.8 (Homo sapiens (Human), UniProt Q9Y5Y9). Kind of test: Automated whole-cell voltage-clamp (ScreenPatch 384P), Nav 1.8 sodium current, Protocol 2. To be noted: Protocol 2 (holding −100 mV, inactivation step −40 mV 8 s, 0.05 Hz); CHO cells expressing human Nav 1.8; read-out: Nav1.8 IC50. The format is cell-based. How it is done: (§1) Biological assays were performed on Chinese hamster ovary (CHO) cells expressing the human sodium channels Nav 1.8 and Nav 1.7 stably.
(§2) The experimental voltage-clamp protocol using the whole cell configuration was established on the automated ScreenPatch® 384P platform (SP384PE, Nanion Technologies, Livingston, NJ) and recording of the results was performed with a Nanion 384-well Patch Clamp chip (NPC) (Nanion Technologies, Livingston, NJ).
(§3) Compounds of Formula (I), were diluted in eight concentrations in the extracellular solution composed of physiological saline, buffered with HEPES (mM): NaCl, 137; KCl, 4; CaCl2, 3.8; MgCl2, 1; HEPES, 10; Glucose, 10; pH 7.4. The […], 50; CsF, 90; MgCl2, 5; EGTA, 5; HEPES, 10; pH 7.2. The duration of exposure of each compound with the cells expressing Nav 1.7 or Nav 1.8 was at least five minutes and the assays were performed at room temperature.
(§4) The measurements of the sodium currents of Nav 1.8 and Nav 1.7 were obtained using the voltage protocols described below: • Protocol 1: A holding voltage of −90 mV was established followed by a voltage phase of 200 ms to −120 mV, followed by a voltage step of 10 mV for 1 second for Nav 1.8 or 0 mV for Nav 1.7, followed by a step of −100 mV for 20 ms, followed by a step of 20 ms for 10 mV for Nav 1.8 or 0 mV for Nav 1.7 (TP1A) before returning to the holding voltage of −90 mV. • Protocol 2: A holding voltage of −100 mV was established followed by an inactivation voltage step at −40 mV for 8 seconds, followed by a −100 mV step for […], followed by a 20 ms step for 10 mV for Nav 1.8 or 0 mV for Nav 1.7 (TP1A) before returning to the holding voltage of −100 mV.
(§5) Protocols were repeated at a frequency of 0.1 Hz (Protocol 1) or 0.05 Hz (Protocol 2) and current amplitude was quantified over the TP1A phase log. The variation in the peak amplitude of the current was evaluated according to the Formula described below, after exposure of the cells expressing the channels, at each concentration of the different compounds:
(§6) [formula] • where |TP1A, basal, and |TP1A, molecule represent the entry peaks of sodium currents into TP1A prior to exposure to the compound and in the presence of the compound, respectively.
(§7) The decrease in peak current amplitude, after exposure of the cells to the compounds, was used to calculate the percent relative blocking of the channels relative to the positive control according to the Formula below:
(§8) [formula] • where % V and % CP represent the averages of the values of current inhibition with a vehicle (DMSO) and positive controls, respectively. The sodium currents of the positive control were considered as 100%.
(§9) [formula] • where [Test] represents the concentration of the evaluated molecule, IC50 is the concentration of the compound that generates half of the maximum inhibition, N is the Hill's coefficient and % Block′ is the percentage of the sodium channel current (Nav 1.8 and Nav 1.7) inhibited at each concentration of the evaluated molecule. Data were obtained by non-linear least squares regression with XLfit for Excel (Microsoft, Redmond, WA).
(§10) Compounds were tested in at least one assay to obtain the IC50 value.

Test [2] addresses human sodium channels Nav 1.7 (Homo sapiens (Human), UniProt Q15858). The test can be described thus: Automated whole-cell voltage-clamp (ScreenPatch 384P), Nav 1.7 sodium current, Protocol 2. The class given is cell-based. To be noted: Protocol 2 (holding −100 mV, inactivation step −40 mV 8 s, 0.05 Hz); CHO cells expressing human Nav 1.7; read-out: Nav1.7 IC50. How it is done: as §1, §2, §3, §4, §5, §6, §7, §8, §9, §10

Where only a bound is given, the exact number is not on record here.

Sequence of human sodium channels Nav 1.7 (Q15858 whole entry): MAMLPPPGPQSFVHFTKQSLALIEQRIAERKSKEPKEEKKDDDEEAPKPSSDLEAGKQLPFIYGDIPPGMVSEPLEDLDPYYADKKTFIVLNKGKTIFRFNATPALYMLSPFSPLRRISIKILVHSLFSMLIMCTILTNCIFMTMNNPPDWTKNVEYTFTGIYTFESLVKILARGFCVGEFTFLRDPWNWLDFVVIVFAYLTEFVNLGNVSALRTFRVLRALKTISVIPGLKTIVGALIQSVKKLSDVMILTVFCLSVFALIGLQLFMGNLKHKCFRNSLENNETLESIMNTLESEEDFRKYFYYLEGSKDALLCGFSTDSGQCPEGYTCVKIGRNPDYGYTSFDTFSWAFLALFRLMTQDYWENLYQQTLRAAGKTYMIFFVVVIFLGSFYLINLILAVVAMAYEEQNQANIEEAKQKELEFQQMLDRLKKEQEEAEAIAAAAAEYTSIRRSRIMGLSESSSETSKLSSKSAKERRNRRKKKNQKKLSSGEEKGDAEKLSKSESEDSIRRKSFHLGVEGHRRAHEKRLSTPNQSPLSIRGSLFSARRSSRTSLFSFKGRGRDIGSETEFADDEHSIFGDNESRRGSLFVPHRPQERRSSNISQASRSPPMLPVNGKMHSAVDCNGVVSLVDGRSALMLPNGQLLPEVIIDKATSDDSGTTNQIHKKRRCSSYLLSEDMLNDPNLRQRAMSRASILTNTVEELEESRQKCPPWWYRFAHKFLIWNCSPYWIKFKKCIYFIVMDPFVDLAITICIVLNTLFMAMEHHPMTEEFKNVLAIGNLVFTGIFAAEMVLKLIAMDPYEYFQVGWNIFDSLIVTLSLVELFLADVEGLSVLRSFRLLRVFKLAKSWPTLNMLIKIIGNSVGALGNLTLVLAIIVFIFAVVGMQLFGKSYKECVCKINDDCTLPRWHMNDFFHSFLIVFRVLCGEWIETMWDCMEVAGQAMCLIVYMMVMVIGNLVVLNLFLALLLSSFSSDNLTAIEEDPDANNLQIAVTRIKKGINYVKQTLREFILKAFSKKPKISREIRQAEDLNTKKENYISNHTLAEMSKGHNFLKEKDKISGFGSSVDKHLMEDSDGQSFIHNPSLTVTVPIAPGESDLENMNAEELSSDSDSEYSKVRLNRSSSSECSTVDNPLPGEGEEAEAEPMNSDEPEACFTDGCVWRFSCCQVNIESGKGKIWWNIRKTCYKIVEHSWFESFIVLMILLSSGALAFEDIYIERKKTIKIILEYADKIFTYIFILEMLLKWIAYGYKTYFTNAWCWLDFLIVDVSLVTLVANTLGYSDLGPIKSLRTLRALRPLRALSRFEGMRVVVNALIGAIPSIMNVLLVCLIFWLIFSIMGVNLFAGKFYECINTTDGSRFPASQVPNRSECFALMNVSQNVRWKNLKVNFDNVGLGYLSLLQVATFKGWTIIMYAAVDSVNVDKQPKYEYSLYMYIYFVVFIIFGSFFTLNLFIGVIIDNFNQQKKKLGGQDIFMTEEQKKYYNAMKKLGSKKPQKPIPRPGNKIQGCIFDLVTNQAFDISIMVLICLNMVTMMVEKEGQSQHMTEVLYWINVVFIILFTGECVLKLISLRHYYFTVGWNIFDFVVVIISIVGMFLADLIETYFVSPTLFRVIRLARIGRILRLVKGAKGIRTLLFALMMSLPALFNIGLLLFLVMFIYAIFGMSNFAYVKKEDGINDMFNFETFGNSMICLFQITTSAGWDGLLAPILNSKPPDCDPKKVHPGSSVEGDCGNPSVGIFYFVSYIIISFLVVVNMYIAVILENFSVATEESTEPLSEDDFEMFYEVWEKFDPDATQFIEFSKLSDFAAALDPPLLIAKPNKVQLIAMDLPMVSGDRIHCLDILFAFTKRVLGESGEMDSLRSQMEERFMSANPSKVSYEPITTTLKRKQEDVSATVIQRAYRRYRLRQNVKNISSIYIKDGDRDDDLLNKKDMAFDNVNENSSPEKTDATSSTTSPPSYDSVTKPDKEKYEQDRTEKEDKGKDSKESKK
Sequence of human sodium channels Nav 1.8 (Q9Y5Y9 whole entry): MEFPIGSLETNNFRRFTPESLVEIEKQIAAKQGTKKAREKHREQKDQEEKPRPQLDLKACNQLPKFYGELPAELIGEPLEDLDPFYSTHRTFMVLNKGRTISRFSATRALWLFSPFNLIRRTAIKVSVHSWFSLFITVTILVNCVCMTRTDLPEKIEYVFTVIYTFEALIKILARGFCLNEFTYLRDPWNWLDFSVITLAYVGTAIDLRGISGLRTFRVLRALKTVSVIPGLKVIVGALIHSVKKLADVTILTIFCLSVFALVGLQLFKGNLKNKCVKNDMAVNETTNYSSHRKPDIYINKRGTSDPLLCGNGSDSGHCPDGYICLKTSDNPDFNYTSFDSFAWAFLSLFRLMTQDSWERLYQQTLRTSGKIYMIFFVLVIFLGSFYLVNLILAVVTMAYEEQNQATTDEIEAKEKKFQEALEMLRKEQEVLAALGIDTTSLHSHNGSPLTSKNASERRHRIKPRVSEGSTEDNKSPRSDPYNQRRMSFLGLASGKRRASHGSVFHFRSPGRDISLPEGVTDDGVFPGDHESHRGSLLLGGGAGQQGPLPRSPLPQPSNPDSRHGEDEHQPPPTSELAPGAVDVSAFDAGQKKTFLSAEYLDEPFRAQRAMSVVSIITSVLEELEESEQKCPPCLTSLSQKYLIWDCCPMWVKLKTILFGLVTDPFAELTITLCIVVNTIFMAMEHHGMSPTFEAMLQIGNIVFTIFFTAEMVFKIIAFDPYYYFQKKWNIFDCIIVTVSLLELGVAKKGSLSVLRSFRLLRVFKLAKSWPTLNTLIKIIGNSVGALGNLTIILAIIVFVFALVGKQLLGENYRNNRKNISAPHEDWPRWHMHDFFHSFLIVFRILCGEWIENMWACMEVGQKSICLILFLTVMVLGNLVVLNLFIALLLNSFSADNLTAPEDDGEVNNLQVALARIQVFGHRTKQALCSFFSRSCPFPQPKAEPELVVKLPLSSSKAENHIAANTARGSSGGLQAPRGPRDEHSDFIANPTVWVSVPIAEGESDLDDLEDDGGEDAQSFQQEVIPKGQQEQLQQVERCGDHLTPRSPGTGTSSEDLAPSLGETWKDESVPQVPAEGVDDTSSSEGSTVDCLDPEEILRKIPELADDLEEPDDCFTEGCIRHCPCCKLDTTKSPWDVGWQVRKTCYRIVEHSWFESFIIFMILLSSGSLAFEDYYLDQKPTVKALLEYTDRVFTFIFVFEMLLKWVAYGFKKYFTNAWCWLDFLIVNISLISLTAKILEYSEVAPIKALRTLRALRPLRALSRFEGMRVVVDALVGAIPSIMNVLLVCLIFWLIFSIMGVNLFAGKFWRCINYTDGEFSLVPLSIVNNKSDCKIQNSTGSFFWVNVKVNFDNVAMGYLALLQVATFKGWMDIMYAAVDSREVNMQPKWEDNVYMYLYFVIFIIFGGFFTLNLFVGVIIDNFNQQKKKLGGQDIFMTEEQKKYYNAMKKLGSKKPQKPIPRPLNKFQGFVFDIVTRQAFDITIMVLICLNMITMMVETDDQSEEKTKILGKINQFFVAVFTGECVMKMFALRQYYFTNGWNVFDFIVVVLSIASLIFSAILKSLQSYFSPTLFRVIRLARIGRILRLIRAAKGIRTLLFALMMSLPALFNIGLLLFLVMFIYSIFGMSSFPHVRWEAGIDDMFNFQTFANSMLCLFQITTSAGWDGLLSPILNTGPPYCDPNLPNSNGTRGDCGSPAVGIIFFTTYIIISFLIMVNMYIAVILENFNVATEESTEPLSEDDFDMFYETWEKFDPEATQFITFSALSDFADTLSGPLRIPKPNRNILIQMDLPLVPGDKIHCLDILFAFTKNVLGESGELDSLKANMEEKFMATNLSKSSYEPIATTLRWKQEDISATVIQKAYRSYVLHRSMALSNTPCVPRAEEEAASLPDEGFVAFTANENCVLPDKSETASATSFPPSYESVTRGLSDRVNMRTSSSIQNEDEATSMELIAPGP

Consider `COc1ccc(-c2ccc(C(=O)N/N=C/c3cc(OC)cc(OC)c3)o2)cc1` [Compound 71, (E)-N′-(3,5-dimethoxybenzylidene)-5-(4-methoxyphenyl) furan-2-carbohydrazide], for which the values for the IC50 in test [1] and in test [2] were greater than 1 µM and greater than 10 µM, respectively.
